“Also recorded” adds a separate entry of the source.
Experiments:
human S1P1 receptor = human S1P1 receptor (Homo sapiens, UniProt P21453); experiment: [γ-35S]GTP binding assay, HEK293T membranes (agonism and Schild antagonism); type: biochemical; design: expressed in transfected cells; host or cells: HEK293T, transient transfection; membranes
Text: The appropriate receptor plasmid DNA (encoding human S1P1, human S1P2, human S1P3, human S1P4, human S1P5, human LPA1, human LPA2 or human LPA3 receptors) is mixed with equal amounts of expression plasmids encoding human Gi2α (for S1P3, a mutated (C352F) rat Gi2α is used), cow β1, and cow γ2 proteins, and these DNAs are used to transfect monolayers of HEK293T cells (where ‘T’ indicates expression of the SV-40 virus large T antigen) using the calcium phosphate precipitate method (7). After about 60 hours, cells are harvested, membranes prepared, aliquoted, and stored at −70° C. until use (8).
The [γ-^35S]GTP binding assay is performed as described previously (8). Membranes containing 1-5 μg of protein are incubated in 0.1 ml of binding buffer (in mM: HEPES/50, NaCl/100, MgCl2/10, pH 7.5) containing 5 μg of saponin, 10 μM GDP, 0.1 nM [γ-^35S]GTP (1200 Ci/mmol), and indicated lipid(s) for 30 min at 30° C. and collected using a Brandel Cell Harvester (Gaithersburg, Md.). Samples are then analyzed for bound radionuclide.
(§1) Briefly, nonlinear analysis of the best-fit line generated by plotting the negative log of the EC50 values obtained from agonist dose-response curves, in the absence and presence of varying concentrations of antagonist, was plotted against the concentration of antagonist to give the Kb value.
Statistical Analysis. The EC50 and IC50 values for all dose response curves were determined by nonlinear regression analysis of all data using the Graphpad Prism© program. The error associated with the data collected is reported as the standard error of the mean (S.E.M).

human S1P3 receptor = human S1P3 receptor (Homo sapiens, UniProt Q99500); experiment: Intracellular calcium mobilization, T24 cells transfected stably with human S1P3 receptor; type: cell-based; design: expressed in transfected cells
Procedure: […] monolayers are co-transfected with the human S1P1, S1P2, S1P3 receptor encoding DNAs and the pIRESpuro2 plasmid DNA (Clontech, San Jose, Calif.,) using either Lipofectamine 2000 (Invitrogen, Carlsbad, Calif.) or FuGENE 6 (Roche Applied Science, Indianapolis, Ind.). Clonal populations expressing the puromycin acetyltransferase gene are selected by addition of puromycin (Sigma-Aldrich, St. Louis, Mo.) to the culture media. T24 cells are grown in monolayers at 37° C. in a 5% CO2/95% air atmosphere in growth media consisting of: 95% DMEM/F-12 medium and 10% charcoal/dextran stripped FBS.
A FlexStation™ fluorimeter (Molecular Devices, Menlo Park, Calif.) was used to measure intracellular calcium in native T24 cells and T24 cells transfected stably with either human S1P2 or human S1P3 receptor DNA. Cells were seeded (˜50,000 cells/well) in 96-well, clear bottom black microplates (Corning Costar Corp.) and left overnight at 37° C. The cells were dye-loaded with 4 μM Fluo-4AM ester in a loading buffer (Hank's Balanced Salt Solution, […], containing 20 mM HEPES, 0.1% fatty acid free BSA, and 2.5 mM probenecid) for 30 minutes at 37° C. After washing cell monolayers three times with phosphate buffered saline, loading buffer was added and the cells exposed to sets of compounds for 3 minutes at 25° C. in the FlexStation™. In all cases, each concentration of every compound was tested in at least triplicate. […] The cells were washed with phosphate buffered saline and exposed to compounds immediately, as described above.
as §1

S1P2 receptor = molecular target: T1, S1P2 receptor (Homo sapiens, UniProt O95136); experiment: [32P]S1P binding assay; details: concentrations up to 10 μM (data not shown)
T1 construct: expressed in transfected cells; host or cells: HEK293T, transient transfection; membranes
Procedure: [^32P]-S1P was prepared by incubating sphingosine and [γ-^32P]ATP with cell lysate from HEK293T cells transiently transfected with human sphingosine kinase type 2 DNA. The 200 μl reaction contained 0.025 mM sphingosine, 1 mCi [γ-^32P]ATP (7000 Ci/mmol) and kinase buffer (in mM: Mg(C2H3O2)2 (in 50 mM Tris, pH 7.5)/10, NaF/10, and semicarbizide/2). The reaction was initiated by the addition of 20 μg of cell lysate and incubated at 37° C. for at least 30 minutes. […] The organic layer was isolated and the extraction procedure repeated two additional times with the remaining aqueous fraction. The combined organic fractions were dried under a stream of nitrogen gas and resuspended in aqueous 0.1% fatty acid free BSA.
Bound ligand was separated from free ligand by rapid filtration and analyzed in a liquid scintillation counter.

human S1P3 receptor, sequence (Q99500 whole entry): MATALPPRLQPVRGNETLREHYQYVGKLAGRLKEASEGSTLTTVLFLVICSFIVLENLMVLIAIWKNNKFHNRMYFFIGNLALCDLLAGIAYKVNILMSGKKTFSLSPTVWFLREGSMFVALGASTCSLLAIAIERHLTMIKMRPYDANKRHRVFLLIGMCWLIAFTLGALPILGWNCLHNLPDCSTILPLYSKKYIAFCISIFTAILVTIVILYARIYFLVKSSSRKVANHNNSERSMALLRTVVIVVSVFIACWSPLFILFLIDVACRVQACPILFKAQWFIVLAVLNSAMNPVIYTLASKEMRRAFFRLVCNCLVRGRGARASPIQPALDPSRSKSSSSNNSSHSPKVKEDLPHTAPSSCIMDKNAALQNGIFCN
human S1P1 receptor, sequence (P21453 whole entry): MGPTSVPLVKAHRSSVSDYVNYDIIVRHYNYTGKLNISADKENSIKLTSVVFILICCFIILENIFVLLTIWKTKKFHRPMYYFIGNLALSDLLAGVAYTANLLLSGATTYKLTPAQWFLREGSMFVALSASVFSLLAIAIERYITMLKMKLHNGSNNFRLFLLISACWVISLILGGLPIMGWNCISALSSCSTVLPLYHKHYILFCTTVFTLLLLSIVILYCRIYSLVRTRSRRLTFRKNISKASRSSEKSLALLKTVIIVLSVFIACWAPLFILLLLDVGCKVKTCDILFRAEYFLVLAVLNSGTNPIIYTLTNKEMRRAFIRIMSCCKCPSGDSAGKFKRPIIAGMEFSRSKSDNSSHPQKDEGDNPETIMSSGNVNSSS
T1 sequence (O95136 whole entry): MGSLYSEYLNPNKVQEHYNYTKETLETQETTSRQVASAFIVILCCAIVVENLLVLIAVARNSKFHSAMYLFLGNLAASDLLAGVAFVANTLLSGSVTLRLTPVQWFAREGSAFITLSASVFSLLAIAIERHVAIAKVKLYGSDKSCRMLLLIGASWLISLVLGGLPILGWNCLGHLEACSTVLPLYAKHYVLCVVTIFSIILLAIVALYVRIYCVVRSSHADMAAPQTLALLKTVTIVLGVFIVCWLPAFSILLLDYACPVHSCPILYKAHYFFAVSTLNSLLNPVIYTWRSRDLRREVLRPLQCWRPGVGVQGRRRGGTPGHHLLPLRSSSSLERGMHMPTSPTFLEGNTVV

CCCCCCCCc1cccc(NC(=O)[C@H](N)COP(=O)(O)O)c1 [VPC23019]
Agonist activity at the S1P1 receptor (human S1P1 receptor): lacked agonist activity | pKb S1P1 (human S1P1 receptor; Schild analysis (Lew and Angus) of S1P curves in [γ-35S]GTP binding, ± S.E.M.): 7.49±0.16 | Inverse agonism profile at S1P1 (human S1P1 receptor; VPC23019 concentrations greater than 100 nM): a profile suggesting inverse agonism | Antagonism of S1P at the S1P1 receptor (human S1P1 receptor; [γ-35S]GTP binding, S1P with increasing VPC23019, Lew and Angus regression): dose-dependent, parallel rightward shift; also recorded: competitive antagonist | Kb (human S1P1 receptor; read-out: pKb S1P1 (converted)): 32.4 nM | Agonist efficacy class S1P1 (human S1P1 receptor; relative to S1P Emax): na (no agonist activity (<10% of S1P Emax)) | Reversibility of antagonism after washout, Ca2+ mobilization (human S1P3 receptor; 10000 nM VPC23019 pre-treatment followed by washout): recovered fully | Competitive behaviour in calcium mobilization assay (nonlinear regression) (human S1P3 receptor; T24-S1P3 cells): did not behave as a competitive antagonist | Calcium mobilization by compound alone (human S1P3 receptor; T24-S1P3 cells versus wild-type T24 cells): not a result of stimulation of the S1P3 receptor | Influence on binding of [32P]S1P to the S1P2 receptor (S1P2 receptor): did not influence the binding
